{"source": "patent US20130023491A1", "about": "“BETA-CELL REPLICATION PROMOTING COMPOUNDS AND METHODS OF THEIR USE” (President and Fellows of Harvard College, priority 2009, published 2013)", "key": {"mouse dermal fibroblasts": {"system": "mouse dermal fibroblasts", "test": "Ki-67 proliferation of mouse dermal fibroblasts", "format": "cell-based", "settings": "A10 0.019-10 uM", "method": "Using a protocol similar to as described in Example 1, β-cells or mouse dermal fibroblasts were treated with 10 uM, 5 uM, 2.5 uM, 1.25 um, 0.625 uM, 0.3125 uM, 0.156 uM, 0.078 uM, 0.04 uM, or 0.019 uM of A10."}, "β-cells [1]": {"system": "β-cells", "test": "quantification of β-cell number (PDX-1+ cell count)", "format": "cell-based, rat", "settings": "day 6 (144 h), 5-IT 2 μM, 15 mM glucose; control wells 20%", "method": "To quantify the number of β-cells at 0 h, 96 h and 144 h of culture, cells were plated in 96-well plates as above in the presence of vehicle only or 5-IT and 15 mM glucose; final DMSO dilution was 1:1000 in all wells. Time Oh was after cells had been allowed 48 h to adhere. Each condition was represented by 16 separate wells per plate to accommodate small fluctuations in plating density. Media changes were performed every 48 h. Cells were fixed at the appropriate time point and stored to be stained simultaneously for PDX-1. Automated cell counting was performed using the Cellomics ArrayScanVTI which identified PDX-1^+ cells."}, "β-cells [2]": {"system": "β-cells", "test": "β-cell replication by phosphohistone-H3 (PH3) and PDX-1 co-expression", "format": "cell-based, rat", "settings": "A10 2 μM, B8 15 μM", "method": "Rat islets were isolated as previously described in Gotoh M, Maki T, Kiyoizumi T, Satomi S, Monaco A P: An improved method for isolation of mouse pancreatic islets. Transplantation 40:437-438, 1985, contents of which are herein incorporated by reference in their entirety. Isolated islets were cultured overnight in a tissue culture incubator. The following morning, islets were trypsinized into cellular clusters of 1-3 cells, re-suspended in islet media (Mediatech 99-786-CV; 10% FBS serum (Valley Biomedial BS3033); 8.3 mM Glucose (Sigma G7528); 1× Penicillin/Streptomycin (Invitrogen 15070-063); 1× Glutamax (Invitrogen 35050-079)) and plated into the wells of a 96-well plate (Sigma CLS3904) that had been coated with 804G (a rat bladder carcinoma cell line) conditioned media. The cellular plating density was 60 k cells/well and greater than 95% viability was confirmed at the time of plating. The islet cells were allowed 48-hours to adhere at which time the media was changed (Mediatech 99-786-CV 2% serum, 5 mM glucose, 1× pen/strep, 1× glutamax) and the cells were treated with the test compounds. For screening, compounds were tested at 1 uM concentration in duplicate. After 24-hours of compound treatment, cells were fixed with fresh 4% PFA (Electron Microscopy Services 15710) for 20 minutes and washed with PBS (VWR 45000-446). […]"}}}
{"smiles": "Nc1ncnc2c1c(I)cn2[C@@H]1O[C@H](CO)[C@@H](O)[C@H]1O", "note": "[A10, 5-iodotubercidin]", "values": [{"measurement": "% Ki-67 positive mouse dermal fibroblasts", "setting": "mouse dermal fibroblasts", "value": "did not change"}, {"measurement": "increase in number of β-cells compared to time 0", "setting": "β-cells [1]", "value": 40, "unit": "%"}, {"measurement": "ratio of PH3 over PDX-1 relative to control DMSO treatment", "setting": "β-cells [2]", "value": "increased"}, {"measurement": "tolerability by cultured hepatocytes", "setting": "murine hepatocytes", "value": "not well tolerated"}]}
